For 44 molecules, IC50 results are on record in patent US12128028B2, “Heterocyclic sulfonamide derivatives and pharmaceutical uses thereof” (METRION BIOSCIENCES LIMITED, priority 2018, dated 2024).

The target of this experiment is human Kv1.3 (Homo sapiens (Human), UniProt P22001). Briefly: Kv1.3 potency evaluation, automated patch clamp electrophysiology (QPatch HT) in CHO-Kv1.3 cells. It counts as cell-based. The note with it: whole-cell QPatch HT, % inhibition of charge, step to +30 mV, four concentrations, N≥3 cells, read-out: hKv1.3 IC50. The method, boiled down:
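Automated whole-cell patch clamp in CHO cells stably expressing human Kv1.3; steps from −80 to +30 mV (500 ms) at 0.067 Hz. Four cumulative concentrations after vehicle (0.1-0.3% DMSO); charge inhibition vs vehicle fitted by four-parameter logistic for IC50, N≥3 cells.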

Sequence of human Kv1.3 (P22001 whole entry): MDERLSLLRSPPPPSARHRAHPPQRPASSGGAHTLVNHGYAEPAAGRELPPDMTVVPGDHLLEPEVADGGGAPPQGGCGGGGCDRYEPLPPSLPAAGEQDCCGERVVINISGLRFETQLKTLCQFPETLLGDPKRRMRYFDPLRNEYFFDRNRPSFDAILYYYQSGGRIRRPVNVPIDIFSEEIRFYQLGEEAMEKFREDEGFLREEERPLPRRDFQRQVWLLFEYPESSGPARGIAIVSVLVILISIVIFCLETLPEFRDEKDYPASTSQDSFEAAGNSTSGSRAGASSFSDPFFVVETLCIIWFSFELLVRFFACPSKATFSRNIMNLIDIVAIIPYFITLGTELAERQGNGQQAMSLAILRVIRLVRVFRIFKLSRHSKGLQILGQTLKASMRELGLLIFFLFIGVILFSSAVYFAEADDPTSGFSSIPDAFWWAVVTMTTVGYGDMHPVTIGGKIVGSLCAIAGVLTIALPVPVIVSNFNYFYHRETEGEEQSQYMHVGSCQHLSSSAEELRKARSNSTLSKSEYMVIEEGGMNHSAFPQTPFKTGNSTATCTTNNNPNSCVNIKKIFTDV

As a reminder, the IC50 is the point on the concentration scale where inhibition reaches its midpoint. As to `CC(F)(F)CCS(=O)(=O)N(Cc1ccc(Cl)c(Cl)c1)C12CC(C3=NC(C)(C)[C@H](C(=O)NCCC(F)(F)F)N3)(C1)C2` (mixture of isomers) [Example 150], the IC50 worked out at 90 nM.
The same measure for `CC1(C)N=C(C23CC(N(Cc4ccc(Cl)cc4)S(=O)(=O)CCCF)(C2)C3)N[C@H]1C(=O)NCCC(F)(F)F` (mixture of isomers) [Example 92]: 64 nM; for `CC1(C)N=C(C23CC(N(Cc4ccc(C(F)(F)F)cc4)S(=O)(=O)c4ccc(F)cc4)(C2)C3)NC1C(=O)NCC1CCC1` (centres unmarked) [Example 192]: 115 nM; for `Cc1ccccc1S(=O)(=O)N(Cc1ccc(Cl)cc1)C12CC(C3=NC(C)(C)[C@H](C(=O)NCCC(F)(F)F)N3)(C1)C2` (mixture of isomers) [Example 219]: 168 nM.
On to `CC1(C)N=C(C23CC(N(Cc4ccc(Cl)c(F)c4)S(=O)(=O)c4ccccc4)(C2)C3)N[C@H]1C(=O)N1CCC(F)(F)C1` (mixture of isomers) [Example 91], for which the IC50 was 64 nM.
On to `CN(C[C@H]1CC1(F)F)C(=O)[C@@H]1NC(C23CC(N(Cc4ccc(Cl)c(Cl)c4)S(=O)(=O)CCC(F)F)(C2)C3)=NC1(C)C` (mixture of isomers) [Example 183], for which the IC50 is 108 nM.
In the case of `CC1(C)N=C(C23CC(N(Cc4ccc(Cl)c(F)c4)S(=O)(=O)c4ccccc4)(C2)C3)N[C@H]1C(=O)N1CCC12CC(F)(F)C2` (mixture of isomers) [Example 94], the IC50 came to 64 nM.
`O=C(NCC1CCC1)C1(Cc2ccccc2)CN=C(C23CC(N(Cc4ccc(C(F)(F)F)cc4)S(=O)(=O)c4ccc(F)cc4)(C2)C3)N1` (centres unmarked) [Example 279]: the IC50 was 608 nM.
For `CC1(C)N=C(C23CC(N(Cc4cccc(Cl)c4)S(=O)(=O)c4ccccc4)(C2)C3)N[C@H]1C(=O)NCCC(F)(F)F` (mixture of isomers) [Example 16], the IC50 is 35 nM.
The same measure for `CC(C)NC(=O)[C@@]1(C)CN=C(C23CC(N(Cc4ccc(C(F)(F)F)cc4)S(=O)(=O)c4ccc(F)cc4)(C2)C3)N1` (mixture of isomers) [Example 250]: 286 nM.
As for `CC1(C)N=C(C23CC(N(Cc4ccc(Cl)c(F)c4)S(=O)(=O)c4ccccc4)(C2)C3)N[C@H]1C(=O)N1CC2CCC(C1)C2(F)F` (mixture of isomers) [Example 88], the IC50 came to 63 nM.
The same measure for `CC1(C)N=C(C23CC(N(Cc4ccc(Cl)c(F)c4)S(=O)(=O)c4ccccc4)(C2)C3)N[C@H]1C(=O)NCC1CC1(F)F` (mixture of isomers) [Example 11]: 28 nM.
Consider `CC1(C)N=C(C23CC(N(Cc4ccc(Cl)cc4)S(=O)(=O)c4ccccc4)(C2)C3)N[C@H]1C(=O)NCC1CC1(F)F` (mixture of isomers) [Example 51], for which the IC50 turned out to be 48 nM.
The same measure for `CC1(C)N=C(C23CC(N(Cc4ccc(Cl)c(F)c4)S(=O)(=O)c4ccccc4)(C2)C3)N[C@H]1C(=O)N1CCC(F)(F)C(C)(C)C1` (mixture of isomers) [Example 200]: 129 nM; for `CC1(C)N=C(C23CC(N(Cc4ccc(Cl)cc4)S(=O)(=O)c4cccc(F)c4)(C2)C3)N[C@H]1C(=O)NCCC(F)(F)F` (mixture of isomers) [Example 59]: 51 nM; for `CC1(C)N=C(C23CC(N(Cc4ccc(Cl)c(C#N)c4)S(=O)(=O)c4ccccc4)(C2)C3)N[C@H]1C(=O)NCCC(F)(F)F` (mixture of isomers) [Example 223]: 177 nM.
The same measure for `CCCC1(C(=O)NCC2CCC2)CN=C(C23CC(N(Cc4ccc(C(F)(F)F)cc4)S(=O)(=O)c4ccc(F)cc4)(C2)C3)N1` (centres unmarked) [Example 273]: 552 nM.
As to `CC1(C)N=C(C23CC(N(Cc4ccc(Cl)c(Cl)c4)S(=O)(=O)c4ccccc4)(C2)C3)N[C@H]1C(=O)NC1CC1C(F)(F)F` (mixture of isomers) [Example 160], the IC50 is 97 nM.
Consider `CC(C)CC1(C(=O)NCC2CCC2)CN=C(C23CC(N(Cc4ccc(C(F)(F)F)cc4)S(=O)(=O)c4ccc(F)cc4)(C2)C3)N1` (centres unmarked) [Example 284], for which the IC50 was found to be 787 nM.
Consider `CC(C)(F)CNC(=O)[C@@H]1NC(C23CC(N(Cc4ccc(Cl)c(Cl)c4)S(=O)(=O)c4ccccc4)(C2)C3)=NC1(C)C` (mixture of isomers) [Example 28], for which the 50% inhibitory concentration (IC50) was 40 nM.
Then `CCCCS(=O)(=O)N(Cc1ccc(Cl)cc1)C12CC(C3=NC(C)(C)[C@H](C(=O)NCCC(F)(F)F)N3)(C1)C2` (mixture of isomers) [Example 10], with 28 nM; and `CCCS(=O)(=O)N(Cc1ccc(Cl)c(Cl)c1)C12CC(C3=NC(C)(C)[C@H](C(=O)NCC(C)(C)C(F)(F)F)N3)(C1)C2` (mixture of isomers) [Example 46], with 47 nM; and `CC1(C)N=C(C23CC(N(Cc4ccc(Cl)cc4)S(=O)(=O)c4ccccc4)(C2)C3)N[C@H]1C(=O)NCc1c(F)cc(F)cc1F` (mixture of isomers) [Example 154], with 91 nM.
The same measure for `CC1(C)N=C(C23CC(N(Cc4ccc(Cl)cc4)S(=O)(=O)N4CCCC4)(C2)C3)N[C@H]1C(=O)NCCC(F)(F)F` (mixture of isomers) [Example 43]: 46 nM; for `CC1(C)N=C(C23CC(N(Cc4ccc(C#N)cc4)S(=O)(=O)c4ccccc4)(C2)C3)N[C@H]1C(=O)NCCC(F)(F)F` (mixture of isomers) [Example 246]: 258 nM.
Then `CC(F)(F)CCS(=O)(=O)N(Cc1ccc(Cl)c(Cl)c1)C12CC(C3=NC(C)(C)[C@H](C(=O)NCC4CC(F)(F)C4)N3)(C1)C2` (mixture of isomers) [Example 158], with 95 nM; and `CC1(C)N=C(C23CC(N(Cc4ccc(Cl)cc4)S(=O)(=O)CCC(F)(F)F)(C2)C3)N[C@H]1C(=O)NCCC(F)(F)F` (mixture of isomers) [Example 201], with 131 nM.
On to `CC1(C)N=C(C23CC(N(Cc4ccc(Cl)c(F)c4)S(=O)(=O)c4ccccc4)(C2)C3)N[C@H]1C(=O)N1CC2CC(F)(F)CC2C1` (mixture of isomers) [Example 82], for which the IC50 was found to be 61 nM.
The same measure for `CC1(C)N=C(C23CC(N(Cc4ccc(Cl)cc4)S(=O)(=O)CC4CCC4)(C2)C3)N[C@H]1C(=O)NCCC(F)(F)F` (mixture of isomers) [Example 105]: 69 nM; for `CC1(C)N=C(C23CC(N(Cc4ccc(Cl)cc4)S(=O)(=O)c4ncc[nH]4)(C2)C3)N[C@H]1C(=O)NCCC(F)(F)F` (mixture of isomers) [Example 291]: 1120 nM; for `CC1(C)N=C(C23CC(N(Cc4ccc(C(F)(F)F)cc4)S(=O)(=O)c4ccc(F)cc4)(C2)C3)NC1C(=O)NCC1(C#N)CCC1` (centres unmarked) [Example 164]: 99 nM.
With `CC1(C)N=C(C23CC(N(Cc4ccc(Cl)cc4)S(=O)(=O)CC(F)(F)F)(C2)C3)N[C@H]1C(=O)NCCC(F)(F)F` (mixture of isomers) [Example 276], the IC50 was 575 nM.
`CN(CC1CC(F)(F)C1)C(=O)[C@@H]1NC(C23CC(N(Cc4ccc(Cl)c(Cl)c4)S(=O)(=O)c4ccccc4)(C2)C3)=NC1(C)C` (mixture of isomers) [Example 113]: the IC50 was 72 nM.
The same measure for `CN(CCC(F)(F)F)C(=O)[C@@H]1NC(C23CC(N(Cc4ccc(Cl)c(Cl)c4)S(=O)(=O)CCC(C)(F)F)(C2)C3)=NC1(C)C` (mixture of isomers) [Example 117]: 73 nM.
The same measure for `CC(F)(F)CNC(=O)[C@@H]1NC(C23CC(N(Cc4ccc(Cl)c(F)c4)S(=O)(=O)c4ccccc4)(C2)C3)=NC1(C)C` (mixture of isomers) [Example 15]: 33 nM; for `C[C@]1(C(=O)N2CCCCC2)CN=C(C23CC(N(Cc4ccc(C(F)(F)F)cc4)S(=O)(=O)c4ccc(F)cc4)(C2)C3)N1` (mixture of isomers) [Example 244]: 252 nM; for `CC1(C)N=C(C23CC(N(Cc4ccc(Cl)c(Cl)c4)S(=O)(=O)CCC(F)F)(C2)C3)N[C@H]1C(=O)N1CCC(F)(F)CC1` (mixture of isomers) [Example 194]: 121 nM.
Then `CC1(C)N=C(C23CC(N(Cc4ccc(Cl)c(F)c4)S(=O)(=O)c4ccccc4)(C2)C3)N[C@H]1C(=O)NCC1CC(F)(F)C1` (mixture of isomers) [Example 63], with 52 nM; and `C[C@]1(C(=O)NCC2CCCCC2)CN=C(C23CC(N(Cc4ccc(C(F)(F)F)cc4)S(=O)(=O)c4ccc(F)cc4)(C2)C3)N1` (mixture of isomers) [Example 290], with 1060 nM; and `CC1(C)N=C(C23CC(N(Cc4ccc(Cl)c(F)c4)S(=O)(=O)c4ccccc4)(C2)C3)N[C@H]1C(=O)NCC(F)(F)C(F)(F)F` (mixture of isomers) [Example 126], with 76 nM.
In the case of `CN(C(=O)[C@@H]1NC(C23CC(N(Cc4ccc(Cl)c(F)c4)S(=O)(=O)c4ccccc4)(C2)C3)=NC1(C)C)C1CC(F)(F)C1` (mixture of isomers) [Example 151], the IC50 is 90 nM.
The same measure for `CC(C)NC(=O)[C@@]1(C)CN=C(C23CC(N(Cc4ccc(C(F)(F)F)cc4)S(=O)(=O)c4ccc(F)cc4)(C2)C3)N1C` (mixture of isomers) [Example 213]: 152 nM; for `CC1(C)N=C(C23CC(N(Cc4ccc(F)c(F)c4)S(=O)(=O)c4ccccc4)(C2)C3)N[C@H]1C(=O)NCCC(F)(F)F` (mixture of isomers) [Example 24]: 40 nM.
Then `CC1(C)N=C(C23CC(N(Cc4ccc(Cl)c(Cl)c4)S(=O)(=O)CCC(F)F)(C2)C3)N[C@H]1C(=O)NC1CC(C(F)F)C1` (mixture of isomers) [Example 177], with 104 nM.
